Experimental data: patent US5959145A, “Fatty acid analog enzyme substrates” (priority 1993, dated 1999)

Experiments:
[1] = growth, toxicity and total protein synthesis in yeast cells; type: cell-based; conditions: s. cerevisiae bj405, vs control cells not exposed to exogenous fatty acid, read-out: reduction in total protein synthesis ([35S]methionine into TCA precipitable protein)
Procedure: (§1) Saccharomyces cerevisiae strain BJ405 [MATα, trpl, prbl, prcl, pep4-3; Hemmings et al., Proc. Natl. Acad. Sci. USA 78, 435-439 (1981)] (previously referred to as JR153) was grown to mid-log phase (OD660 nm =1.0-1.2) in YPD medium (1% yeast extract/2% Bactopeptone/2% Dextrose) at 30° C. in a rotary shaker water bath. Cells were pretreated with Cerulenin at 2 μg/ml for 15 minutes and then incubated for 20-45 minutes with unlabeled myristate, palmitate or fatty acid analog at 100 μM in the presence of either 5 μM [9,10-^3 H(N)]-myristate (22.4 Ci/mmol) or L-[^35 S]methionine (1106 Ci/mmol) at 30 μCi/ml of culture.
(§2) Cells were cooled on ice 5 minutes, pelleted at 10,000×g, then broken and extracted by the method of Towler et al., Proc. Natl. Acad. Sci. USA 83, 2812-2816 (1986). Total protein synthesis was assayed by trichloroacetic acid (TCA) precipitation. Proteins were separated by SDS-12% polyacrylamide gel electrophoresis, and [^3 H]fatty acid incorporation into cellular acyl-proteins was assayed by autoradiography followed by laser densitometry.

[2] = C18 reverse phase HPLC elution of fatty acyl peptides (hydrophobicity); type: physicochemical
Procedure: The fatty acid analog acyl-peptide eluted 7 minutes earlier than the corresponding myristoyl peptide. The free peptide elutes in the void volume (3-5minutes).
This difference was evident when the HPLC elution characteristics of fatty acyl peptides were examined. The elution time of a particular acyl-peptide depends strongly on the peptide sequence as well as on the acyl chain attached to that peptide. For example, the elution times of fatty acyl derivatives of GNAAAARR are (in minutes) decanoic acid, 9; dodecanoic acid, 18; myristic acid, 24; and palmitic acid, 30. Elution times for fatty acyl derivatives of GNAAS[^125 I]YRR are 23 and 28 minutes for C12 and C14 fatty acids, respectively (FIG. 2). […] Such a change could alter the biological activity of myristoyl proteins.
For these Examples, each analog synthesized is characterized by ^1 H and ^13 C NMR as well as mass spectroscopy. The analogs are then characterized kinetically as NMT substrates. Briefly, fatty acid analogs are converted to their CoA esters with Pseudomonas CoA ligase and incubated with the iodinated peptide GNAAS[^125 I]YRR and a source of NMT. […] The radiolabelled peptide is then used at concentrations which will lead to 50% enzyme saturation (i.e., at its Km) for the determination of fatty acid analog kinetic characteristics. Representative analogs with sulfur or oxygen in the backbone of the fatty acid chain serve as good substrates for NMT in vitro and will compete for incorporation of ^3 H labelled myri-state into yeast proteins in vivo. In addition, these analogs differ markedly in hydrophobicity from myri-state as measured both by C18 reverse phase HPLC elution profiles and by 2-octanol/water partition coefficients. The analog CH3 O(CH2)11 COOH, for example, partitions into water 20 fold better than myristate. It is believed that these analogs will be incorporated into mammalian acylproteins in vivo and that their incorporation into these proteins will drastically alter protein processing or targeting. It is further believed that the incorporation of fatty acid analogs of both myristate and palmitate into ester linked and phosphatidyl inositol glycan linked acylproteins will also dramatically alter their properties. Since many viral proteins and oncogenes are acylated, these compounds represent a new class of potential antiviral and antineoplastic agents.

[3] = tested on: yeast myristoylprotein of Mr 20 kDa; experiment: competition for [3H]myristate incorporation into yeast acylprotein in vivo; type: cell-based; conditions: Saccharomyces cerevisiae, 0.75 h, read-out: reduction in incorporation of [3H]myristate into yeast myristoylprotein of Mr 20 kDa
Procedure: as §1, §2

wheat germ NMT = experiment: in vitro myristoylation assay with partially purified wheat germ NMT; type: biochemical; conditions: fatty acid or analog at 5 μM, peptide varied; read-out: Km of peptide substrate Gly-Asn-Ala-Ala-Ser-[125I]Tyr-Arg-Arg
Procedure: Myristoyl CoA and fatty acid analog CoA were generated by incubation of the fatty acid or analog with CoA, ATP and CoA ligase. This reaction mixture was added to wheat germ NMT and Gly-Asn-Ala-Ala-Ser- [^125 I]Tyr-Arg-Arg in the presence of 0.03% Triton® X-100. Reaction products were characterized by reverse phase HPLC and gamma counting.
The invention is illustrated in greater detail in the following Examples 1 to 15 by the synthesis and testing of representative compounds of the invention as myristoylating enzyme substrates. Accordingly, the invention is first illustrated in Examples 1 to 5 by the chemical synthesis of a sulfur-containing analog of myristic acid, namely 11-(ethylthio)undecanoicacid, CH3 CH2 --S--(CH2)10 COOH, which is then tested in vitro as a wheat germ NMT substrate. Wheat germ NMT is a protein similar to yeast NMT. The purity and chemical identity of the synthesized compound were examined using ^1 H and ^13 C NMR as well as mass spectroscopy. The assay that was used to characterize the substrate specificity of wheat germ NMT measures the rate of attachment of a radiolabelled fatty acid to an unlabelled peptide. The fatty acid analog synthesized was nonradioactive.
Characterization of Partially Purified Wheat Germ NMT--Assays for NMT activity were performed using a procedure detailed previously by Towler and Glaser, Proc. Natl. Acad. Sci. USA 83, 2812-2816 (1986). Briefly, the in vitro assay measures the transfer of radiolabelled fatty acid from acyl CoA to a synthetic peptide substrate. The acylpeptide product is identified by reverse phase HPLC. Time and enzyme dependence were evaluated by varying the reaction time or the enzyme concentration. […] Fatty acid specificity was examined essentially as described by Towler et al., J. Biol. Chem. 262, 1030-1036 (1987), except that the peptide Gly-Ser-Ser-Lys-Ser-Lys-Pro-Lys rather than Gly-Asn-Ala-Ala-Ala-Ala-Arg-Arg was used to compare palmitate and myristate utilization by wheat germ NMT. This was necessary because of the presence of a large, peptide-independent peak which co-eluted with a palmitoyl-Gly-Asn-Ala-Ala-Ala-Ala-Arg-Arg standard. [^3 H]Palmitate and [^3 H]myristate were used in this comparison. [^14 C]fatty acids were used to compare C-10, C-12 and C-14 chain lengths. Fatty acyl CoA concentrations in these assays were determined by a modification of the method of Hosaka et al., Methods Enzymol. 71, 325-333 (1981).
Characterization of the Fatty Acid Analog--Gly-Asn-Ala-Ala-Ser-[^125 I]Tyr-Arg-Arg as prepared in Example 2, above, was tested in an in vitro myristoylation system which was modified from that used with radiolabelled fatty acids. […] 20-fold more wheat germ NMT (480-fold purified as in Example 3, above) was used for these assays than for assays which employed [^3 H] myristate. […] Double reciprocal plots were generated for the iodinated peptide with both myristic acid and the sulfur analog by altering the peptide concentration in the presence of a constant amount of fatty acid or analog. […] The assays contained 0.03% Triton X-100 to maintain the solubility of the fatty acids.

## CCCCCCCCCCCCCC(=O)O [myristic acid, reference compound]
[1]
  inhibition at 100 µM: 10 to 15%
[2]; C18 reverse phase HPLC, acyl derivative of GNAAS[125I]YRR, Table 2
  Elution Time: 26 min
[2]; reverse phase HPLC
  elution time of fatty acyl derivative of GNAAAARR: 24 min
[2]; reverse phase HPLC, FIG. 2, text
  elution time of fatty acyl derivative of GNAAS[125I]YRR: 28 min
[3]
  inhibition at 100 µM: 75 to 80%
Wheat germ NMT
  Km: 3 µM
